Laboratory results reported in article PMC13327620, “A Deep‐Red‐Absorbing Osmium(II) Complex as a Photosensitizer for Photodynamic Therapy Inducing Immunogenic Cell Death” (Angewandte Chemie (International Ed. in English), 2026).

Tests used:
MCA205 cells = assay: In vivo vaccination and rechallenge, MCA205 model; parameters: species or system C57BL/6 mice; conditions: vaccination with MCA205 cells pre-treated with 500 µM Cisplatin or 1400 µM Oxaliplatin (dark), 5.5 µM Ce6 or 3 µM Os2 (740 nm)
Description: Next, we used these concentrations in the MCA205 vaccination and rechallenge model on C57BL/6 mice to test the in vivo ICD effect of Os2, following the same experimental procedure as that used for CT26‐luc cells in Figure 5A. […] Body weights remained stable across all groups throughout the study, further supporting the good in vivo biosafety of Os2.
(§1) The BALB/c female mice were randomly divided into 4 groups with each group containing 5 mice, which were named as Control group, Cisplatin group, Ce6 group and Os2 group. CT26-luc cells wer e treat ed in vitro with 600 µM Cisplatin in the dark, 6.5 µM Ce6 or 1.8 µM Os2 upon 740 nm LED light irradiation (60 min, 12.6 J cm-2) following the methods described above. Subsequently, treated CT26-luc cells (3×10^5 cells in 100 µ L sterile PBS) or 100 µ L sterile PB S were injected subcutaneously into the left flank of each mouse. One week later, mice were r echalleng ed by injection with untreated CT26- luc cells (1×10^6 cells in 100 µL sterile PBS). The mice were monitored by an in vivo imaging system (Biospace Lab, Photon Imager Optima) and the tumor volume was calculated with the following equation: tumor volume = width 2 × length × […]
(§2) In vivo vaccination study on MCA205 cells
The C57BL/6 mice were randomly divided into 5 groups with each group containing 10 mice, whi ch w ere nam ed as Control group, Cisplatin group, Oxaliplatin group, Ce6 group and Os2 group. M CA205 cells were treated in vitro with 500 µM Cisplatin o r 1400 µM Oxaliplatin in the dark, 5.5 µM Ce6 or 3 µM Os2 upon 740 nm LED light irradiation (60 min, 12.6 J cm-2) following the methods described above. Subsequently, treated MCA205 cells (3 ×10^5 cells in 100 µ L sterile PBS) or 100 µ L sterile PBS were injected subcutaneously into the left flank of each mouse. One week later, mice were rechallenged by injection with untreated MCA205 cells (1×10^6 cells in 100 µ L sterile PBS). The tumor volume was calculated with the following equation: tumor volume =

CT26‐luc cells = assay: In vivo vaccination and rechallenge, CT26-luc model; parameters: species or system BALB/c mice
Method: The ability to stimulate ICD in vivo was evaluated using a CT26‐luc vaccination and rechallenge model, following the gold‐standard method (Figure 5A). The mice were randomly assigned to groups and injected subcutaneously on the left flank with PBS solution, CT26‐luc cells pre‐treated with either 600 µM Cisplatin in the dark, 6.5 µM Ce6, or 1.8 µM Os2 upon 740 nm LED light irradiation (60 min, 12.6 J cm^−2). After 7 days, all the mice were rechallenged by subcutaneous injection of untreated live CT26‐luc cells on the right flank. […] However, by day 15, tumors in the PBS‐treated (control) group grew rapidly, reaching an average tumor volume of 717 ± 190 mm^3.
as §1, §2
The C57BL/6 mice were randomly divided into 5 groups with each group containing 10 mice, whi ch w ere nam ed as Control group, Cisplatin group, Oxaliplatin group, Ce6 group and Os2 group. M CA205 cells were treated in vitro with 500 µM Cisplatin o r 1400 µM Oxaliplatin in the dark, 5.5 µM Ce6 or 3 µM Os2 upon 740 nm LED light irradiation (60 min, 12.6 J cm-2) following the methods described above. […] The tumor volume was calculated with the following equation: tumor volume =

[1] = tested on: immune cells in the spleens; assay: Flow cytometry analysis of immune cells in spleens after vaccination; type: in vivo, BALB/c mice; conditions: spleen, 7 days after vaccination
Description: Encouraged by the excellent performance of Os2 in inducing ICD both in vitro and in vivo, we decided to further evaluate the antitumor immune response following vaccination. A key feature of ICD is its ability to initiate antigen‐specific adaptive immune responses. To assess this, we measured the immune cell response in the spleens and the cytokine levels in the serum of mice 7 days after vaccination (Figures 6A and S28).
The BALB/c female mice were randomly divided into 4 groups which were named as Control group, Cisplatin group, Ce6 group and Os2 group. CT26-luc cells were tre ated in vitro with 600 µM Cisplatin in the dark, 6.5 µ M Ce6 or 1.8 µM Os2 upon 740 nm LED light irradiation (60 min, 12.6 J cm-2) following the methods described above. […]
The BALB/c female mice were randomly divided into 4 groups with each group containing 3 mice, which were named as Control group, Cisplatin group, Ce6 group and Os2 group. […] For surfac e marker analysis, the cells were stained with fluorescence- l abeled anti-C D45-AF532 (Thermo Fisher Scientific Inc., Catalog no. 58- 0451- 80, clone 30-F 11 ), anti-CD3- […]
Serum samples were obt ained from the mice on day 7 after treatment. Cytokine was detected using ELISA kits according to the manufacturer ’s instructions: IFN-γ (Biolegend, Catalog no. 430807) and IL -17A ( Bi olegend, Catalog no.432507). […]

## C=Cc1c(C)c2cc3nc(c(CC(=O)O)c4[nH]c(cc5nc(cc1[nH]2)C(C)=C5CC)c(C)c4C(=O)O)[C@@H](CCC(=O)O)[C@@H]3C [Ce6, chlorin e6]
MCA205 cells
  Tumor growth: partial suppression
CT26‐luc cells; by day 40, n = 5 per group
  Mice with tumors completely ablated: one mouse
CT26‐luc cells; day 15 after rechallenge, vaccination with CT26‐luc cells pre-treated with 6.5 µM Ce6 or 1.8 µM Os2 + 740 nm
  Tumor volume, times smaller than control group: 1.7
CT26‐luc cells; up to 40 days after rechallenge, compared to the other groups
  Survival: prolonged survival periods
[1]
  Activated CD8^+ T cells, times that of Control and Cisplatin groups: around twice higher
  Cytotoxic CD8^+ T cells, times higher than Control and Cisplatin groups: more than 10
